Data from US10806798B2, “Compound with effects of thrombolysis, free radical scavenging and thrombus-targeting” (Shanghai Lumosa Therapeutics Co., Ltd., priority 2012, dated 2020).
Marks after values point to notes of the source that are not given here. Side chains are listed from the residue outwards. Ends that are not written are not given here.

How the values were obtained:
rats with stroke = experiment: Immediate treatment after stroke onset, neural function scores (Zealonga method, 0 no loss to 5 death); type: in vivo, SD rats; conditions: 0.1 μmol/kg, 24 h after awake, n = 10
Method: The in vivo anti-stroke activity of the present invention was represented by neural function scores, with a lower score indicating higher activity. A 10% chloral hydrate solution (400 mg/kg) was injected intraperitoneally into SD male rats (250-300 g) for anesthesia. An open incision of 2 cm in length was longitudinally made slightly on the right to the center of the neck, and the right common carotid artery trunk, carotid external artery and carotid internal artery were dissected along the margin of the inner side of sternocleidomastoid muscles. The open incisions in the carotid internal artery and the proximal end of the common carotid artery were occluded respectively with noninvasive arterial clips. A small open incision was made across the carotid external artery, and the distal end of the carotid external artery was ligated. The arterial clip at the proximal end of the carotid external artery was released, and 10 μl blood was drawn before the proximal end of the common carotid artery was again occluded with the noninvasive arterial clip. The 10 μl blood drawn was placed in a 1 mL EP vial and kept at RT for 30 min for coagulation of blood, and then transferred into a −20° C. refrigerator for 1 h to allow coagulation. After 1 h, the blood clots were taken out, into which 1 mL saline was added, and then broken into uniform microthrombus by using a steel spatula. The microthrombus suspension was then transferred to a 1 mL injector until use. At the same time when the clip on the carotid internal artery of the rat was released, 1 mL thrombus suspension in the injector was slowly injected from the carotid external artery of the rat to its proximal end, and the suspension was injected into the brain of the rat through the carotid internal artery. Subsequently, the proximal end of the carotid external artery was ligated, the arterial clips on the carotid internal artery and the common carotid artery were released, and blood flow was restored. The jugular common vein of the rats was dissected. The vein was immediately ligated, 3 drops of penicillin was dropped at the wound site, the wound was stitched up, and the animals were allowed to come around, as the sham operation group. Or injection of urokinase in normal saline (positive control group, at a dosage of 20000 IU/kg), normal saline (blank control group, at a dosage of 3 ml/kg), TMMZ in normal saline (component control group, at a dosage of 1 μmol/kg), a thrombolytic peptide ARPAK (SEQ. ID NO. 4), GRPAK (SEQ. ID NO. 5), RPAK (SEQ. ID NO. 3) or PAK in normal saline (component control group, at a dosage of 1 μmol/kg), or one of compounds Ia-Il in normal saline (at a dosage of 0.1 μmol/kg) was carried out. 24 h after the rats were awake, the degree of damage in the neural function was evaluated by the Zealonga method. A score of 0 indicated no sign of loss in neural function, 1 indicated the front limbs on the undamaged side could not stretch out, 2 indicated walking toward the undamaged side, 3 indicated tail-chasing walking in circles toward the undamaged side, 4 indicated involuntary walking with disturbance of consciousness, and 5 indicated death.

[1] = tested on: NO free radicals (acetylcholine induced vasodilation); experiment: NO radical scavenging: inhibition of acetylcholine induced vasodilation of aorta rings; parameters: species or system Wistar rats; conditions: final concentration 5×10^−6 M; n = 6
Method: Male Wistar rats weighing 250 to 300 g were starved for 12 h before operation with free access to drinking water, and sacrificed by cervical dislocation. Thoracotomy was immediately carried out and thoracic aorta was taken out, connective tissues attached thereto were dissected, and vessels were cut into aorta rings with a length of 3 to 5 mm and placed into a perfusion bath. The bath contained 15 ml Krebs-Henseleit solution and was kept at a constant temperature of 37° C., into which 95% O2-5% CO2 gas was charged. The anchor to which the aorta rings were immobilized was connected to a tension transducer, and vasomotion curves were recorded on a dual-trace recorder at a paper speed of 1 mm/min. With the static tension adjusted to 1.0 g and 30 min of equilibration, norepinephrine at a final concentration of 10^−8 M was dosed to allow the aorta to contract for preexcitation. Norepinephrine was washed off, followed by 30 min of equilibration, and norepinephrine was added into the bath to a final concentration of 10^−8 M. When the contraction tension was steady at a plateau level, 20 μl normal saline (blank), a 20 μl solution of any one of compounds Ia to Il in normal saline (at a final concentration of 5×10^−6 M), or a 20 μl solution of NO free radical scavenger (1,3-dioxo-2-(4′-oxyacetoxyl-phenyl)-4,4,5,5-tetramethylimidazoline, TMMZ) in normal saline (at a final concentration of 5×10^−6 M) was added into the bath. When stabilized, a 20 μl acetylcholine in normal saline was added (at a final concentration of 10^−6 M). The NO scavenging ability of the drugs was expressed as a percentage of inhibition of acetylcholine induced vasodilation.

thrombus = experiment: In vivo anti-thrombus experiment (arteriovenous cannula with thread); parameters: species or system SD rats; conditions: 0.1 μmol/kg by gavage; n = 11
Method: SD rats (male, 220 to 230 g) were randomly divided into groups with 11 rats in each group. The rats were fed at a resting state for 1 day and fasted overnight. […] After 30 min, the rats were anesthetized with a 20% urethane solution, and the right carotid artery and the left carotid vein were dissected. A cannula was filled with sodium heparin in normal saline, and one end thereof was inserted into the left vein, while the other end was injected with a certain amount of sodium heparin for anticoagulation with an injector and then inserted into the right artery. Blood flew from the right artery to the left vein through the polyethylene tubing, and the thread attached with thrombus was taken out after 15 min and the weight thereof was recorded. The wet thrombus weight was determined by subtracting the thread weight from the total weight.

| Substance | Neural function scores (Mean ± SD) (rats with stroke) | Percentage of inhibition (Mean ± SD %) of vasodilatation induced by acetylcholine [1] [%] | Wet weight of thrombus (Mean ± SD mg) (thrombus) [mg] |
| --- | --- | --- | --- |
| 1,3-dioxo-2-{4′-oxyacetyl-[N^ω-(Ala-Arg-Pro-Ala-Lys)-Lys-Arg-Gly-Asp-Ser]phenyl}-4,4,5,5-tetramethylimidazoline [Ia] | 1.00 ± 1.01 ^b | 22.82 | 24.32 ± 2.10 |
| 1,3-dioxo-2-{4′-oxyacetyl-[N^ω-(Pro-Ala-Lys)-Lys-Arg-Gly-Asp-Ser]phenyl}-4,4,5,5-tetramethylimidazoline (K([Lys-Ala-Pro])RGDS; not fully specified (N-terminus); also: 4′-oxyacetylphenyl-1,3-dioxo-4,4,5,5-tetramethylimidazoline (nitronyl nitroxide) conjugate, attachment amine not clear) [Ij] | 0.90 ± 1.10 ^c | 27.22 | 19.45 ± 1.79 |
| 1,3-dioxo-2-{4′-oxyacetyl-[N^ω-(Arg-Pro-Ala-Lys)-Lys-Arg-Gly-Asp-Ser]phenyl}-4,4,5,5-tetramethylimidazoline [Ig] | 1.00 ± 1.19 ^b | 24.40 | 17.89 ± 2.05 |
| 1,3-dioxo-2-{4′-oxyacetyl-[N^ω-(Pro-Ala-Lys)-Lys-Arg-Gly-Asp-Val]phenyl}-4,4,5,5-tetramethylimidazoline (K([Lys-Ala-Pro])RGDV; not fully specified (N-terminus); also: 4′-oxyacetylphenyl-1,3-dioxo-4,4,5,5-tetramethylimidazoline (nitronyl nitroxide) conjugate, attachment amine not clear) [Ik] | 0.56 ± 0.53 ^c | 11.13 | 22.25 ± 2.25 |
| 1,3-dioxo-2-{4′-oxyacetyl-[N^ω-(Gly-Arg-Pro-Ala-Lys)-Lys-Arg-Gly-Asp-Ser]phenyl}-4,4,5,5-tetramethylimidazoline | 1.22 ± 1.32 ^b | 17.60 | 19.46 ± 1.84 |
| 1,3-dioxo-2-{4′-oxyacetyl-[N^ω-(Arg-Pro-Ala-Lys)-Lys-Arg-Gly-Asp-Phe]phenyl}-4,4,5,5-tetramethylimidazoline [Ii] | 0.87 ± 1.05 ^c | 13.75 | 17.79 ± 2.02 |
| 1,3-dioxo-2-{4′-oxyacetyl-[N^ω-(Arg-Pro-Ala-Lys)-Lys-Arg-Gly-Asp-Val]phenyl}-4,4,5,5-tetramethylimidazoline [Ih] | 1.33 ± 1.22 ^b | – | 18.24 ± 1.89 |
| 1,3-dioxo-2-{4′-oxyacetyl-[N^ω-(Ala-Arg-Pro-Ala-Lys)-Lys-Arg-Gly-Asp-Val]phenyl}-4,4,5,5-tetramethylimidazoline [Ib] | 0.56 ± 1.01 ^c | – | 20.14 ± 2.45 |
| 1,3-dioxo-2-{4′-oxyacetyl-[N^ω-(Ala-Arg-Pro-Ala-Lys)-Lys-Arg-Gly-Asp-Phe]phenyl}-4,4,5,5-tetramethylimidazoline [Ic] | 0.89 ± 1.36 ^c | 21.78 | 20.50 ± 2.26 |
| 1,3-dioxo-2-{4′-oxyacetyl-[N^ω-(Pro-Ala-Lys)-Lys-Arg-Gly-Asp-Phe]phenyl}-4,4,5,5-tetramethylimidazoline (K([Lys-Ala-Pro])RGDF; not fully specified (N-terminus); also: 4′-oxyacetylphenyl-1,3-dioxo-4,4,5,5-tetramethylimidazoline (nitronyl nitroxide) conjugate, attachment amine not clear) [Il] | 0.50 ± 0.53 ^c | 22.62 | 19.32 ± 2.56 |
| 1,3-dioxo-2-{4′-oxyacetyl-[N^ω-(Gly-Arg-Pro-Ala-Lys)-Lys-Arg-Gly-Asp-Phe]phenyl}-4,4,5,5-tetramethylimidazoline [If] | 0.60 ± 0.84 ^c | – | 17.99 ± 2.47 |
